Target: human LPAR1 (Homo sapiens (Human), UniProt Q92633)
Test: LPAR1 intracellular calcium mobilization assay (antagonist mode, FLIPR)
Type: cell-based
Conditions: CHO-K1 EDG2 cells expressing human LPAR1, LPA 18:2 at EC80 (100 nM), test compound 0.5 nM to 10 μM

Chain of human LPAR1 (Q92633 whole entry): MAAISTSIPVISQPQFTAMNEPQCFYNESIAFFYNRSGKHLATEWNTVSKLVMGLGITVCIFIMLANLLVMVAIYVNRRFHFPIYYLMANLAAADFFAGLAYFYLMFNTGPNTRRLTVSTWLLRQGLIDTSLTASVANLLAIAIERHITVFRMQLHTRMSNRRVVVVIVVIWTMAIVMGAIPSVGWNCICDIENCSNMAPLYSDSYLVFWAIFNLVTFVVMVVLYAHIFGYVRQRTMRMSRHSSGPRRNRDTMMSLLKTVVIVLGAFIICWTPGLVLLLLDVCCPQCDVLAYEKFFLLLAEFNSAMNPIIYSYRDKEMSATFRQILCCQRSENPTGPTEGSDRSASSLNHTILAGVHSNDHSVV

C[C@@H](OC(=O)Nc1c(-c2ccc(NC(=O)C3(C(F)(F)F)CC4(CCC4)C3)cn2)nnn1C)c1cccnc1Cl [Compound 78, (R)-1-(2-chloropyridin-3-yl)ethyl (1-methyl-4-(5-(2-(trifluoromethyl)spiro[3.3]heptane-2-carboxamido)pyridin-2-yl)-1H-1,2,3-triazol-5-yl)carbamate]
EC50: 83.6 nM

C[C@@H](OC(=O)Nc1c(-c2ccc(NC(=O)C3(C#N)CC4(CCC4)C3)cn2)nnn1C)c1cccnc1Cl [Compound 79, (R)-1-(2-chloropyridin-3-yl)ethyl (4-(5-(2-cyanospiro[3.3]heptane-2-carboxamido)pyridin-2-yl)-1-methyl-1H-1,2,3-triazol-5-yl)carbamate]
EC50: 16 nM

C[C@@H](OC(=O)Nc1c(-c2ccc(NC(=O)C3CC4(CC(C#N)C4)C3)cn2)nnn1C)c1cccnc1Cl (stereo partly drawn) [Compound 80, (R)-1-(2-chloropyridin-3-yl)ethyl (4-(5-(6-cyanospiro[3.3]heptane-2-carboxamido)pyridin-2-yl)-1-methyl-1H-1,2,3-triazol-5-yl)carbamate]
EC50: 109 nM

C[C@@H](OC(=O)Nc1c(-c2ccc(NC(=O)C3CC4(CC(F)C4)C3)cn2)nnn1C)c1cccnc1Cl (stereo partly drawn) [Compound 81, (R)-1-(2-chloropyridin-3-yl)ethyl (4-(5-(6-fluorospiro[3.3]heptane-2-carboxamido)pyridin-2-yl)-1-methyl-1H-1,2,3-triazol-5-yl)carbamate]
EC50: 22.8 nM

C[C@@H](OC(=O)Nc1c(-c2ccc(NC(=O)C34CC(Cl)(C3)C4)cn2)nnn1C)c1cccnc1Cl [Compound 82, (R)-1-(2-chloropyridin-3-yl)ethyl (4-(5-(3-chlorobicyclo[1.1.1]pentane-1-carboxamido)pyridin-2-yl)-1-methyl-1H-1,2,3-triazol-5-yl)carbamate]
EC50: 20.4 nM

C[C@@H](OC(=O)Nc1c(-c2ccc(NC(=O)C3CC(=O)C3)cn2)nnn1C)c1cccnc1Cl [Compound 83, (R)-1-(2-chloropyridin-3-yl)ethyl (1-methyl-4-(5-(3-oxocyclobutane-1-carboxamido)pyridin-2-yl)-1H-1,2,3-triazol-5-yl)carbamate]
EC50: 344 nM

C[C@@H](OC(=O)Nc1c(-c2ccc(NC(=O)C3CC(C)(C)C3)cn2)nnn1C)c1cccnc1Cl [Compound 84, (R)-1-(2-chloropyridin-3-yl)ethyl (4-(5-(3,3-dimethylcyclobutane-l-carboxamido)pyridin-2-yl)-1-methyl-1H-1,2,3-triazol-5-yl)carbamate]
EC50: 14.5 nM

C[C@@H](OC(=O)Nc1c(-c2ccc(NC(=O)[C@H]3C[C@@]4(CC4(F)F)C3)cn2)nnn1C)c1cccnc1Cl [Compound 85, (R)-1-(2-chloropyridin-3-yl)ethyl (4-(5-((3R,5r)-1,1-difluorospiro[2.3]hexane-5-carboxamido)pyridin-2-yl)-1-methyl-1H-1,2,3-triazol-5-yl)carbamate]
EC50: 11.2 nM

C[C@@H](OC(=O)Nc1c(-c2ccc(NC(=O)[C@H]3C[C@]4(CC4(F)F)C3)cn2)nnn1C)c1cccnc1Cl [Compound 86, (R)-1-(2-chloropyridin-3-yl)ethyl (4-(5-((3S,5s)-1,1-difluorospiro[2.3]hexane-5-carboxamido)pyridin-2-yl)-1-methyl-1H-1,2,3-triazol-5-yl)carbamate]
EC50: 16.6 nM

C[C@@H](OC(=O)Nc1c(-c2ccc(NC(=O)C3(C#N)CC4(CC4)C3)cn2)nnn1C)c1cccnc1Cl [Compound 87, (R)-1-(2-chloropyridin-3-yl)ethyl (4-(5-(5-cyanospiro[2.3]hexane-5-carboxamido)pyridin-2-yl)-1-methyl-1H-1,2,3-triazol-5-yl)carbamate]
EC50: 16.1 nM

C[C@@H](OC(=O)Nc1c(-c2ccc(NC(=O)C3CC4(CC4)C3)cn2)nnn1C)c1cccnc1Cl [Compound 88, (R)-1-(2-chloropyridin-3-yl)ethyl (1-methyl-4-(5-(spiro[2.3]hexane-5-carboxamido)pyridin-2-yl)-1H-1,2,3-triazol-5-yl)carbamate]
EC50: 8.6 nM

C[C@@H](OC(=O)Nc1c(-c2ccc(NC(=O)C3(C#N)CC34CCCC4)cn2)nnn1C)c1cccnc1Cl (stereo partly drawn) [Compound 89, (R)-1-(2-chloropyridin-3-yl)ethyl (4-(5-(1-cyanospiro[2.4]heptane-1-carboxamido)pyridin-2-yl)-1-methyl-1H-1,2,3-triazol-5-yl)carbamate]
EC50: 312 nM

C[C@@H](OC(=O)Nc1c(-c2ccc(NC(=O)[C@@H]3CCC3(F)F)cn2)nnn1C)c1cccnc1Cl [Compound 90, (R)-1-(2-chloropyridin-3-yl)ethyl (4-(5-((S)-2,2-difluorocyclobutane-1-carboxamido)pyridin-2-yl)-1-methyl-1H-1,2,3-triazol-5-yl)carbamate]
EC50: 73.5 nM

C[C@@H](OC(=O)Nc1c(-c2ccc(NC(=O)[C@H]3CCC3(F)F)cn2)nnn1C)c1cccnc1Cl [Compound 91, (R)-1-(2-chloropyridin-3-yl)ethyl (4-(5-((R)-2,2-difluorocyclobutane-1-carboxamido)pyridin-2-yl)-1-methyl-1H-1,2,3-triazol-5-yl)carbamate]
EC50: 187 nM

C[C@@H](OC(=O)Nc1c(-c2ccc(NC(=O)C3(C(N)=O)CC3)cn2)nnn1C)c1cccnc1Cl [Compound 92, (R)-1-(2-chloropyridin-3-yl)ethyl (4-(5-(1-carbamoylcyclopropane-1-carboxamido)pyridin-2-yl)-1-methyl-1H-1,2,3-triazol-5-yl)carbamate]
EC50: 601 nM

C[C@@H](OC(=O)Nc1c(-c2ccc(NC(=O)C3(C#N)COC3)cn2)nnn1C)c1cccnc1Cl [Compound 93, (R)-1-(2-chloropyridin-3-yl)ethyl (4-(5-(3-cyanooxetane-3-carboxamido)pyridin-2-yl)-1-methyl-1H-1,2,3-triazol-5-yl)carbamate]
EC50: 133 nM

C[C@@H](OC(=O)Nc1c(-c2ccc(NC(=O)C3(c4cccnc4)CC3)cn2)nnn1C)c1cccnc1Cl [Compound 94, (R)-1-(2-chloropyridin-3-yl)ethyl (1-methyl-4-(5-(1-(pyridin-3-yl)cyclopropane-1-carboxamido)pyridin-2-yl)-1H-1,2,3-triazol-5-yl)carbamate]
EC50: 4820 nM

C[C@@H](OC(=O)Nc1c(-c2ccc(NC(=O)C3(C#N)CCOCC3)cn2)nnn1C)c1cccnc1Cl [Compound 95, (R)-1-(2-chloropyridin-3-yl)ethyl (4-(5-(4-cyanotetrahydro-2H-pyran-4-carboxamido)pyridin-2-yl)-1-methyl-1H-1,2,3-triazol-5-yl)carbamate]
EC50: 309 nM

CCC1(C(=O)Nc2ccc(-c3nnn(C)c3NC(=O)O[C@H](C)c3cccnc3Cl)nc2)COC1 [Compound 96, (R)-1-(2-chloropyridin-3-yl)ethyl (4-(5-(3-ethyloxetane-3-carboxamido)pyridin-2-yl)-1-methyl-1H-1,2,3-triazol-5-yl)carbamate]
EC50: 2330 nM

C[C@@H](OC(=O)Nc1c(-c2ccc(NC(=O)C3(C)COC3)cn2)nnn1C)c1cccnc1Cl [Compound 97, (R)-1-(2-chloropyridin-3-yl)ethyl (1-methyl-4-(5-(3-methyloxetane-3-carboxamido)pyridin-2-yl)-1H-1,2,3-triazol-5-yl)carbamate]
EC50: 395 nM

C[C@@H](OC(=O)Nc1c(-c2ccc(NC(=O)c3cccc(C#N)n3)cn2)nnn1C)c1cccnc1Cl [Compound 98, (R)-1-(2-chloropyridin-3-yl)ethyl (4-(5-(6-cyanopicolinamido)pyridin-2-yl)-1-methyl-1H-1,2,3-triazol-5-yl)carbamate]
EC50: 720 nM

C[C@@H](OC(=O)Nc1c(-c2ccc(NC(=O)c3ccc(C#N)nc3)cn2)nnn1C)c1cccnc1Cl [Compound 99, (R)-1-(2-chloropyridin-3-yl)ethyl (4-(5-(6-cyanonicotinamido)pyridin-2-yl)-1-methyl-1H-1,2,3-triazol-5-yl)carbamate]
EC50: 53.9 nM

C[C@@H](OC(=O)Nc1c(-c2ccc(NC(=O)c3ccnc(C#N)c3)cn2)nnn1C)c1cccnc1Cl [Compound 100, (R)-1-(2-chloropyridin-3-yl)ethyl (4-(5-(2-cyanoisonicotinamido)pyridin-2-yl)-1-methyl-1H-1,2,3-triazol-5-yl)carbamate]
EC50: 90.8 nM

Cc1cnccc1C(=O)Nc1ccc(-c2nnn(C)c2NC(=O)O[C@H](C)c2cccnc2Cl)nc1 [Compound 101, (R)-1-(2-chloropyridin-3-yl)ethyl (1-methyl-4-(5-(3-methylisonicotinamido)pyridin-2-yl)-1H-1,2,3-triazol-5-yl)carbamate]
EC50: 1040 nM

Cc1cc(C(=O)Nc2ccc(-c3nnn(C)c3NC(=O)O[C@H](C)c3cccnc3Cl)nc2)ccn1 [Compound 102, (R)-1-(2-chloropyridin-3-yl)ethyl (1-methyl-4-(5-(2-methylisonicotinamido)pyridin-2-yl)-1H-1,2,3-triazol-5-yl)carbamate]
EC50: 85.6 nM

C[C@@H](OC(=O)Nc1c(-c2ccc(NC(=O)c3ccnc(Cl)c3)cn2)nnn1C)c1cccnc1Cl [Compound 103, (R)-1-(2-chloropyridin-3-yl)ethyl (4-(5-(2-chloroisonicotinamido)pyridin-2-yl)-1-methyl-1H-1,2,3-triazol-5-yl)carbamate]
EC50: 16.6 nM

C[C@@H](OC(=O)Nc1c(-c2ccc(NC(=O)C34COC(C3)C4)cn2)nnn1C)c1cccnc1Cl [Compound 104, (R)-1-(2-chloropyridin-3-yl)ethyl (4-(5-(2-oxabicyclo[2.1.1]hexane-4-carboxamido)pyridin-2-yl)-1-methyl-1H-1,2,3-triazol-5-yl)carbamate]
EC50: 560 nM

C[C@@H](OC(=O)Nc1c(-c2ccc(NC(=O)C34CC(CO3)C4)cn2)nnn1C)c1cccnc1Cl [Compound 105, (R)-1-(2-chloropyridin-3-yl)ethyl (4-(5-(2-oxabicyclo[2.1.1]hexane-1-carboxamido)pyridin-2-yl)-1-methyl-1H-1,2,3-triazol-5-yl)carbamate]
EC50: 1580 nM

C[C@@H](OC(=O)Nc1c(-c2ccc(NC(=O)c3c[nH]cn3)cn2)nnn1C)c1cccnc1Cl [Compound 106, (R)-1-(2-chloropyridin-3-yl)ethyl (4-(5-(1H-imidazole-4-carboxamido)pyridin-2-yl)-1-methyl-1H-1,2,3-triazol-5-yl)carbamate]
EC50: 1760 nM
